Experimental data published in paper PMC4503722, “Novel Phenotypic Outcomes Identified for a Public Collection of Approved Drugs from a Publicly Accessible Panel of Assays” (PLoS ONE, 2015).

Tested on: SNU-C1
Assay: cells
Format: cell-based
Conditions: assay number 30; basal; read-out: Basal_Viability ATP SNU-C1 summarized IC50

Structure (SMILES) | IC50
O=C(O)CN(CCN(CC(=O)O)CC(=O)O)CCN(CC(=O)O)CC(=O)O [NCGC00015360-08] | > 20 µM
CCCCOC(=O)c1ccc(N)cc1 [NCGC00016353-08] | > 20 µM
Cc1ccc2c(Br)cc(Br)c(O)c2n1 [NCGC00160566-02] | 12.8 µM
O=C(O)CCc1nc2ccccc2[nH]1 [NCGC00013414-04] | > 20 µM

Tested on: HCT116 cells treated with a GSK3β inhibitor
Assay: cells
Format: cell-based
Conditions: assay number 26; GSK3b inhibitor pretreated; read-out: GSK3b inh pretreated_Viability ATP HCT116 summarized IC50

Structure (SMILES) | IC50
O=C(O)CN(CCN(CC(=O)O)CC(=O)O)CCN(CC(=O)O)CC(=O)O [NCGC00015360-08] | 0.896 µM
CCCCOC(=O)c1ccc(N)cc1 [NCGC00016353-08] | 5.61 µM
Cc1ccc2c(Br)cc(Br)c(O)c2n1 [NCGC00160566-02] | 1.03 µM
O=C(O)CCc1nc2ccccc2[nH]1 [NCGC00013414-04] | 2.2 µM

Tested on: endothelial tube formation in co-cultures of ECFCs and ADSCs treated with VEGF
Assay: cells
Format: cell-based, human
Conditions: read-out: VEGF_ADSC\ECFC Angio CD31 TubeArea summarized IC50

Structure (SMILES) | IC50
Cc1ccc2c(Br)cc(Br)c(O)c2n1 [NCGC00160566-02] | > 10 µM

Tested on: RKO
Assay: cells
Format: cell-based
Conditions: assay number 29; basal; read-out: Basal_Viability ATP RKO summarized IC50

Structure (SMILES) | IC50
O=C(O)CN(CCN(CC(=O)O)CC(=O)O)CCN(CC(=O)O)CC(=O)O [NCGC00015360-08] | 2.96 µM
CCCCOC(=O)c1ccc(N)cc1 [NCGC00016353-08] | 0.137 µM
Cc1ccc2c(Br)cc(Br)c(O)c2n1 [NCGC00160566-02] | 0.311 µM
O=C(O)CCc1nc2ccccc2[nH]1 [NCGC00013414-04] | > 20 µM

Tested on: DLD-1
Assay: cells
Format: cell-based
Conditions: assay number 23; basal; read-out: Basal_Viability ATP DLD-1 summarized IC50

Structure (SMILES) | IC50
O=C(O)CN(CCN(CC(=O)O)CC(=O)O)CCN(CC(=O)O)CC(=O)O [NCGC00015360-08] | > 20 µM
CCCCOC(=O)c1ccc(N)cc1 [NCGC00016353-08] | 4.56 µM
Cc1ccc2c(Br)cc(Br)c(O)c2n1 [NCGC00160566-02] | 4.77 µM
O=C(O)CCc1nc2ccccc2[nH]1 [NCGC00013414-04] | 2.42 µM

Tested on: Colo320
Assay: cells
Format: cell-based
Conditions: assay number 27; basal; read-out: Basal_Viability ATP Colo 320 summarized IC50

Structure (SMILES) | IC50
O=C(O)CN(CCN(CC(=O)O)CC(=O)O)CCN(CC(=O)O)CC(=O)O [NCGC00015360-08] | > 20 µM
CCCCOC(=O)c1ccc(N)cc1 [NCGC00016353-08] | > 20 µM
Cc1ccc2c(Br)cc(Br)c(O)c2n1 [NCGC00160566-02] | 0.001 µM
O=C(O)CCc1nc2ccccc2[nH]1 [NCGC00013414-04] | > 20 µM

Tested on: HT-29
Assay: cells
Format: cell-based
Conditions: assay number 28; basal; read-out: Basal_Viability ATP HT-29 summarized IC50

Structure (SMILES) | IC50
O=C(O)CN(CCN(CC(=O)O)CC(=O)O)CCN(CC(=O)O)CC(=O)O [NCGC00015360-08] | > 20 µM
CCCCOC(=O)c1ccc(N)cc1 [NCGC00016353-08] | > 20 µM
Cc1ccc2c(Br)cc(Br)c(O)c2n1 [NCGC00160566-02] | > 6.67 µM
O=C(O)CCc1nc2ccccc2[nH]1 [NCGC00013414-04] | > 20 µM

Tested on: HeLa cells;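 for Hela CellCycMod PI 4N summarized IC50: value tracks stimulation of 4N DNA content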
Assay: cells
Format: cell-based
Conditions: assay number 14; 2N; read-out: Hela CellCycMod PI 2N summarized IC50

Structure (SMILES) | IC50
O=C(O)CN(CCN(CC(=O)O)CC(=O)O)CCN(CC(=O)O)CC(=O)O [NCGC00015360-08] | > 10 µM
CCCCOC(=O)c1ccc(N)cc1 [NCGC00016353-08] | > 10 µM
O=C(O)CCc1nc2ccccc2[nH]1 [NCGC00013414-04] | > 10 µM

Same assay, conditions: assay number 15; S phase; read-out: Hela CellCycMod PI S Phase summarized IC50

Structure (SMILES) | IC50
O=C(O)CN(CCN(CC(=O)O)CC(=O)O)CCN(CC(=O)O)CC(=O)O [NCGC00015360-08] | > 10 µM
CCCCOC(=O)c1ccc(N)cc1 [NCGC00016353-08] | > 10 µM
O=C(O)CCc1nc2ccccc2[nH]1 [NCGC00013414-04] | > 10 µM

Same assay, conditions: assay number 16; 4N; read-out: Hela CellCycMod PI 4N summarized IC50

Structure (SMILES) | IC50
O=C(O)CN(CCN(CC(=O)O)CC(=O)O)CCN(CC(=O)O)CC(=O)O [NCGC00015360-08] | > 10 µM
CCCCOC(=O)c1ccc(N)cc1 [NCGC00016353-08] | > 10 µM
O=C(O)CCc1nc2ccccc2[nH]1 [NCGC00013414-04] | > 10 µM

Same assay, conditions: assay number 17; MI; read-out: Hela CellCycMod PI MI summarized IC50

Structure (SMILES) | IC50
O=C(O)CN(CCN(CC(=O)O)CC(=O)O)CCN(CC(=O)O)CC(=O)O [NCGC00015360-08] | > 10 µM
CCCCOC(=O)c1ccc(N)cc1 [NCGC00016353-08] | > 10 µM
O=C(O)CCc1nc2ccccc2[nH]1 [NCGC00013414-04] | > 10 µM

Same assay, conditions: assay number 18; cell number; read-out: Hela CellCycMod PI Cell Number summarized IC50

Structure (SMILES) | IC50
O=C(O)CN(CCN(CC(=O)O)CC(=O)O)CCN(CC(=O)O)CC(=O)O [NCGC00015360-08] | > 10 µM
CCCCOC(=O)c1ccc(N)cc1 [NCGC00016353-08] | > 10 µM
O=C(O)CCc1nc2ccccc2[nH]1 [NCGC00013414-04] | > 10 µM

Tested on: ECFC/ADSC co-culture cell nuclei number
Assay: not given
Conditions: read-out: VEGF_ADSC\ECFC Angio Hoechst NucArea summarized IC50

Structure (SMILES) | IC50
Cc1ccc2c(Br)cc(Br)c(O)c2n1 [NCGC00160566-02] | > 10 µM

Tested on: HCT116
Assay: cells
Format: cell-based
Conditions: assay number 25; basal; read-out: Basal_Viability ATP HCT116 summarized IC50

Structure (SMILES) | IC50
O=C(O)CN(CCN(CC(=O)O)CC(=O)O)CCN(CC(=O)O)CC(=O)O [NCGC00015360-08] | > 6.67 µM
CCCCOC(=O)c1ccc(N)cc1 [NCGC00016353-08] | > 20 µM
Cc1ccc2c(Br)cc(Br)c(O)c2n1 [NCGC00160566-02] | 1.16 µM
O=C(O)CCc1nc2ccccc2[nH]1 [NCGC00013414-04] | > 20 µM

Tested on: SW480
Assay: cells
Format: cell-based
Conditions: assay number 24; basal; read-out: Basal_Viability ATP SW480 summarized IC50

Structure (SMILES) | IC50
O=C(O)CN(CCN(CC(=O)O)CC(=O)O)CCN(CC(=O)O)CC(=O)O [NCGC00015360-08] | 3.14 µM
CCCCOC(=O)c1ccc(N)cc1 [NCGC00016353-08] | 0.586 µM
O=C(O)CCc1nc2ccccc2[nH]1 [NCGC00013414-04] | > 20 µM
